This assay is described as follows: Activity at human TP receptor in platelet rich plasma assessed as inhibition […]-induced platelet aggregation.

`CC(=O)c1cc(F)cc2c3c(n(Cc4ccc(Cl)cc4)c12)[C@@H](CC(=O)O)CC3` [[(3R)-4-(4-chlorobenzyl)-7-fluoro-5-acetyl-1,2,3,4-tetrahydrocyclopenta-[b]indol-3-yl]acetic acid]: the half-maximal inhibitory concentration (IC50) was found to be 1400 nM. The figure for `O=C(O)C[C@H]1CCc2c1n(Cc1ccc(Cl)cc1)c1c(Br)cc(F)cc21` [[(3R)-5-bromo-4-(4-chlorobenzyl)-7-fluoro-1,2,3,4-tetrahydrocyclopenta[b]indol-3-yl]acetic acid] is 80 nM.

Values taken from BindingDB's records for doi:10.1021/jm0603668 (Merck Frosst Canada, 2007).
